Experiments:
Assay in all cases: relative viability (nuclei count vs DMSO), 5 days (fraction); higher = more cells survive
NCI-H1975 = tested on: NCI-H1975
In short: (§1)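 Cells from lung cancer lines were seeded into 1536-well plates and, one day later, dosed by pin tool. Treatments were either a single drug or a fixed dose of an anchor drug with five library-drug doses (not always all listed) in √10 steps. After 5 days, nuclei were stained in a one-step fixation (final 0.05% Triton X-100, 1% formaldehyde, 1 ug/ml Hoechst) and counted on 4× images, and relative viability is the treated-to-vehicle nuclei ratio, as the median of duplicate plates.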

NCI-H2126 = tested on: NCI-H2126
In short: as §1

NCI-H2023 = tested on: NCI-H2023
In short: as §1

LXF-289 = tested on: LXF-289
In short: as §1

NCI-H1915 = tested on: NCI-H1915
In short: as §1

NCI-H358 = tested on: NCI-H358
In short: as §1

HCC-78 = tested on: HCC-78
In short: as §1

NCI-H322M = tested on: NCI-H322M
In short: as §1

NCI-H1755 = tested on: NCI-H1755
In short: as §1

ChaGo-K-1 = tested on: ChaGo-K-1
In short: as §1

NCI-H1666 = tested on: NCI-H1666
In short: as §1

ABC-1 = tested on: ABC-1
In short: as §1

NCI-H3122 = tested on: NCI-H3122
In short: as §1

COR-L 105 = tested on: COR-L 105
In short: as §1

UMC-11 = tested on: UMC-11
In short: as §1

NCI-H2085 = tested on: NCI-H2085
In short: as §1

HCC-15 = tested on: HCC-15
In short: as §1

HOP-62 = tested on: HOP-62
In short: as §1

EPLC-272H = tested on: EPLC-272H
In short: as §1

NCI-H441 = tested on: NCI-H441
In short: as §1

CAL-12T = tested on: CAL-12T
In short: as §1

EMC-BAC-2 = tested on: EMC-BAC-2
In short: as §1

Cc1sc2c(c1C)C(c1ccc(Cl)cc1)=N[C@@H](CC(=O)OC(C)(C)C)c1nnc(C)n1-2 [JQ1] + O=C(c1cc(Cc2n[nH]c(=O)c3ccccc23)ccc1F)N1CCN(C(=O)C2CC2)CC1 [Olaparib] (partner 8 µM)
relative viability (NCI-H1975; first compound 0.04 µM): 0.747
relative viability (NCI-H1975; first compound 0.1265 µM): 0.608
relative viability (NCI-H1975; first compound 0.4 µM): 0.473
relative viability (NCI-H1975; first compound 1.265 µM): 0.281
relative viability (NCI-H1975; first compound 4 µM): 0.342
relative viability (NCI-H2126; first compound 0.04 µM): 0.895
relative viability (NCI-H2126; first compound 0.1265 µM): 0.909
relative viability (NCI-H2126; first compound 0.4 µM): 0.951
relative viability (NCI-H2126; first compound 1.265 µM): 0.8
relative viability (NCI-H2126; first compound 4 µM): 0.735
relative viability (NCI-H2023; first compound 0.04 µM): 0.442
relative viability (NCI-H2023; first compound 0.1265 µM): 0.342
relative viability (NCI-H2023; first compound 0.4 µM): 0.207
relative viability (NCI-H2023; first compound 1.265 µM): 0.104
relative viability (NCI-H2023; first compound 4 µM): 0.0832
relative viability (LXF-289; first compound 0.04 µM): 0.99
relative viability (LXF-289; first compound 0.1265 µM): 1.06
relative viability (LXF-289; first compound 0.4 µM): 0.744
relative viability (LXF-289; first compound 1.265 µM): 0.47
relative viability (LXF-289; first compound 4 µM): 0.258
relative viability (NCI-H1915; first compound 0.04 µM): 0.23
relative viability (NCI-H1915; first compound 0.4 µM): 0.184
relative viability (NCI-H1915; first compound 1.265 µM): 0.138
relative viability (NCI-H1915; first compound 4 µM): 0.107
relative viability (NCI-H358; first compound 0.04 µM): 0.509
relative viability (NCI-H358; first compound 0.1265 µM): 0.58
relative viability (NCI-H358; first compound 0.4 µM): 0.604
relative viability (NCI-H358; first compound 1.265 µM): 0.406
relative viability (NCI-H358; first compound 4 µM): 0.37
relative viability (HCC-78; first compound 0.04 µM): 0.7
relative viability (HCC-78; first compound 0.1265 µM): 0.693
relative viability (HCC-78; first compound 0.4 µM): 0.807
relative viability (HCC-78; first compound 1.265 µM): 0.581
relative viability (HCC-78; first compound 4 µM): 0.494
relative viability (NCI-H322M; first compound 0.04 µM): 0.597
relative viability (NCI-H322M; first compound 0.1265 µM): 0.933
relative viability (NCI-H322M; first compound 0.4 µM): 0.654
relative viability (NCI-H322M; first compound 1.265 µM): 0.536
relative viability (NCI-H322M; first compound 4 µM): 0.461
relative viability (NCI-H1755; first compound 0.04 µM): 0.887
relative viability (NCI-H1755; first compound 0.1265 µM): 0.824
relative viability (NCI-H1755; first compound 0.4 µM): 0.806
relative viability (NCI-H1755; first compound 1.265 µM): 0.644
relative viability (NCI-H1755; first compound 4 µM): 0.611
relative viability (ChaGo-K-1; first compound 0.04 µM): 0.392
relative viability (ChaGo-K-1; first compound 0.1265 µM): 0.37
relative viability (ChaGo-K-1; first compound 0.4 µM): 0.29
relative viability (ChaGo-K-1; first compound 1.265 µM): 0.239
relative viability (ChaGo-K-1; first compound 4 µM): 0.214
relative viability (NCI-H1666; first compound 0.04 µM): 0.708
relative viability (NCI-H1666; first compound 0.1265 µM): 0.616
relative viability (NCI-H1666; first compound 0.4 µM): 0.685
relative viability (NCI-H1666; first compound 1.265 µM): 0.662
relative viability (NCI-H1666; first compound 4 µM): 0.577
relative viability (ABC-1; first compound 0.04 µM): 0.772
relative viability (ABC-1; first compound 0.1265 µM): 0.575
relative viability (ABC-1; first compound 0.4 µM): 0.744
relative viability (ABC-1; first compound 1.265 µM): 0.748
relative viability (ABC-1; first compound 4 µM): 0.385
relative viability (NCI-H3122; first compound 0.04 µM): 0.558
relative viability (NCI-H3122; first compound 0.1265 µM): 0.586
relative viability (NCI-H3122; first compound 0.4 µM): 0.494
relative viability (NCI-H3122; first compound 1.265 µM): 0.485
relative viability (NCI-H3122; first compound 4 µM): 0.276
relative viability (COR-L 105; first compound 0.04 µM): 0.624
relative viability (COR-L 105; first compound 0.1265 µM): 0.497
relative viability (COR-L 105; first compound 0.4 µM): 0.385
relative viability (COR-L 105; first compound 1.265 µM): 0.329
relative viability (COR-L 105; first compound 4 µM): 0.351
relative viability (UMC-11; first compound 0.04 µM): 0.359
relative viability (UMC-11; first compound 0.1265 µM): 0.282
relative viability (UMC-11; first compound 0.4 µM): 0.268
relative viability (UMC-11; first compound 1.265 µM): 0.142
relative viability (UMC-11; first compound 4 µM): 0.0941
relative viability (NCI-H2085; first compound 0.04 µM): 0.781
relative viability (NCI-H2085; first compound 0.1265 µM): 0.696
relative viability (NCI-H2085; first compound 0.4 µM): 0.693
relative viability (NCI-H2085; first compound 1.265 µM): 0.601
relative viability (NCI-H2085; first compound 4 µM): 0.604
relative viability (HCC-15; first compound 0.04 µM): 0.528
relative viability (HCC-15; first compound 0.1265 µM): 0.641
relative viability (HCC-15; first compound 0.4 µM): 0.693
relative viability (HCC-15; first compound 1.265 µM): 0.58
relative viability (HCC-15; first compound 4 µM): 0.392
relative viability (HOP-62; first compound 0.04 µM): 0.306
relative viability (HOP-62; first compound 0.1265 µM): 0.285
relative viability (HOP-62; first compound 0.4 µM): 0.18
relative viability (HOP-62; first compound 1.265 µM): 0.114
relative viability (HOP-62; first compound 4 µM): 0.115
relative viability (EPLC-272H; first compound 0.04 µM): 0.836
relative viability (EPLC-272H; first compound 0.1265 µM): 0.716
relative viability (EPLC-272H; first compound 0.4 µM): 0.53
relative viability (EPLC-272H; first compound 1.265 µM): 0.471
relative viability (EPLC-272H; first compound 4 µM): 0.199
relative viability (NCI-H441; first compound 0.04 µM): 0.612
relative viability (NCI-H441; first compound 0.1265 µM): 0.523
relative viability (NCI-H441; first compound 0.4 µM): 0.256
relative viability (NCI-H441; first compound 1.265 µM): 0.17
relative viability (NCI-H441; first compound 4 µM): 0.17
relative viability (CAL-12T; first compound 0.04 µM): 0.715
relative viability (CAL-12T; first compound 0.1265 µM): 0.823
relative viability (CAL-12T; first compound 0.4 µM): 0.595
relative viability (CAL-12T; first compound 1.265 µM): 0.34
relative viability (CAL-12T; first compound 4 µM): 0.272
relative viability (EMC-BAC-2; first compound 0.04 µM): 0.447
relative viability (EMC-BAC-2; first compound 0.1265 µM): 0.433
relative viability (EMC-BAC-2; first compound 0.4 µM): 0.391
relative viability (EMC-BAC-2; first compound 1.265 µM): 0.32
relative viability (EMC-BAC-2; first compound 4 µM): 0.259

From the supplement of paper PMC10307832
